Data taken from patent US20230100235A1, “ANTICANCER AGENT COMPOSITION” (CARNA BIOSCIENCES, INC., priority 2020, published 2023).

How the values were obtained:
[1] = tested on: BTK-C481S-mutant OCI-Ly10 cells; test: Cell proliferation suppression test of single agents, BTK-C481S-mutant OCI-Ly10; assay type: cell-based, Human; conditions: Homo sapiens, OCI-Ly10; single agent; read-out: Inhibitory activity on cell proliferation OCI-Ly10 BTK-C481S IC50
Protocol: (§1) The OCI-Ly10 or U2932 cells (20000 cells/well) were seeded into 96-well plates (cell plates), to which the test compound diluted with the medium was added at final concentrations of 0.009 nM to 30000 nM (a final DMSO concentration of 0.3%), and after 96 hours of culture, an Alamar Blue reagent (Thermo Fisher Scientific Inc.) was added. After 3 hours, the fluorescence of excitation wavelength 560 nm/fluorescence wavelength 590 nm was measured and IC50 values of inhibitory activity were determined by setting a compound-free and cell-free well as 100% and a compound-free and cell-containing well as 0%.
(§2) BTK-C481S-mutant OCI-Ly10 cells were produced by point mutation knock-in using the CRISPR-Cas9 system. Cas9 protein (Thermo Fisher Scientific Inc.), guide RNA prepared with GeneArt™ Precision gRNA Synthesis Kit (Thermo Fisher Scientific Inc.), and a single-stranded synthetic oligonucleotide to replace 481st cysteine residue of BTK with a serine residue were introduced into OCI-Ly10 cells by an electroporation method. The resulting modified OCI-Ly10 cells were cultured in the presence of ibrutinib, and the grown cells were used as BTK-C481S-mutant OCI-Ly10 cells. Transduction of the mutation was confirmed by genomic DNA and mRNA sequence analysis.
In the same manner as in Test Example 1, IC50 values for each inhibitor single agent were determined.

[2] = tested on: OCI-Ly10 cells; test: Cell proliferation suppression test of single agents, OCI-Ly10 (Alamar Blue, 96 h); assay type: cell-based, Human; conditions: Homo sapiens, OCI-Ly10, single agent, read-out: Inhibitory Activity on cell proliferation IC50 OCI-Ly10
Protocol: Human lymphoma cell line OCI-Ly10 cells (obtained from University Health Network) were cultured in a 5% CO2 incubator using IMDM medium (Iscove's Modified Dulbecco's Medium, Thermo Fisher Scientific Inc.) containing 20% fetal bovine serum (GE Healthcare) and 1% penicillin streptomycin (NACALAI TESQUE, INC.).
as §1

[3] = tested on: U2932 cells; test: Cell proliferation suppression test of single agents, U2932 (Alamar Blue, 96 h); assay type: cell-based, Human; conditions: Homo sapiens, U2932, single agent, read-out: Inhibitory Activity on cell proliferation IC50 U2932
Protocol: Human lymphoma cell line U2932 cells (obtained from DSMZ) were cultured in a 5% CO2 incubator using RPMI medium (Roswell Park Memorial Institute medium, Thermo Fisher Scientific Inc.) containing 10% fetal bovine serum (GE Healthcare) and 1% penicillin streptomycin (NACALAI TESQUE, INC.).
as §1

[4] = tested on: BTK-C481S-mutant OCI-Ly10 cells; test: Dose-response study of BTK inhibitor in the presence of BCL-2 inhibitor, BTK-C481S-mutant OCI-Ly10; assay type: cell-based; conditions: Homo sapiens, read-out: Inhibitory activity on cell proliferation OCI-Ly10 BTK-C481S IC50
Protocol: as §2
BTK-C481S-mutant lymphoma cells were used to examine changes in IC50 values of the BTK inhibitor in the presence of various concentrations of BCL-2 inhibitor.
From the results obtained for the BCL-2 inhibitor used as a single agent, BCL-2 inhibitor concentrations for three doses were selected for BTK-C481-mutant OCI-Ly10 cells.

[5] = tested on: BTK-C481S-mutant OCI-Ly10 cells; test: Combined effect by BLISS score, BTK-C481S-mutant OCI-Ly10; assay type: cell-based, Human; conditions: combination with venetoclax, positive = synergistic
Protocol: After 96 hours of culture, an Alamar Blue reagent was added, and 3 hours later, fluorescence of excitation wavelength 560 nm/fluorescence wavelength 590 nm was measured. Cell proliferation inhibition rate and viability (100−inhibition rate %) were determined by setting a compound-free and cell-free well as 100% and a compound-free and cell-containing well as 0%.
as §2
The BLISS score was calculated in the same manner as in Example 1.

[6] = tested on: OCI-Ly10 cells; test: Dose-response study of BTK inhibitor in the presence of BCL-2 inhibitor, OCI-Ly10; assay type: cell-based; conditions: Homo sapiens, read-out: Inhibitory activity on cell proliferation OCI-Ly10 IC50
Protocol: as §1
(§3) Changes in IC50 values of the BTK inhibitor in the presence of the BCL-2 inhibitor at various concentrations were examined.

[7] = tested on: U2932 cells; test: Dose-response study of BTK inhibitor in the presence of BCL-2 inhibitor, U2932; assay type: cell-based; conditions: Homo sapiens, read-out: Inhibitory activity on cell proliferation U2932 IC50
Protocol: as §1, §3
From the result obtained for the BCL-2 inhibitor used as a single agent, BCL-2 inhibitor concentrations for three doses were selected for each cancer cell line.

[8] = OCI-Ly10, in the presence of S-55746 10 nM
[9] = OCI-Ly10, in the presence of S-55746 30 nM
[10] = OCI-Ly10, in the presence of S-55746 100 nM
[11] = OCI-Ly10, in the presence of navitoclax 10 nM
[12] = OCI-Ly10, in the presence of navitoclax 30 nM
[13] = OCI-Ly10, in the presence of navitoclax 100 nM
[14] = OCI-Ly10, in the presence of obatoclax mesylate 50 nM
[15] = OCI-Ly10, in the presence of obatoclax mesylate 100 nM
[16] = OCI-Ly10, in the presence of obatoclax mesylate 200 nM
[17] = OCI-Ly10, in the presence of venetoclax 1 nM
[18] = OCI-Ly10, in the presence of venetoclax 3 nM
[19] = OCI-Ly10, in the presence of venetoclax 10 nM
[20] = OCI-Ly10, obatoclax mesylate 0 nM

In the case of `Nc1nc(-c2cccc(-n3ccc4cc(C5CC5)cc(F)c4c3=O)c2CO)c2cc(C3=CCN(C4COC4)CC3)[nH]c2n1` [Compound (I-A), 2-(3-{2-amino-6-[1-(oxetan-3-yl)-1,2,3,6-tetrahydropyridin-4-yl]-7H-pyrrolo[2,3-d]pyrimidin-4-yl}-2-(hydroxymethyl)phenyl)-6-cyclopropyl-8-fluoroisoquinolin-1(2H)-one], the IC50 [1] is reported as 15 nM, the IC50 [2] is reported as 2 nM and the IC50 [3] is reported as 12500 nM. It also gave an IC50 ([4]; OCI-Ly10, S-55746 0 nM) of 11 nM, an IC50 [4, 8] of 7.9 nM and an IC50 [4, 9] of 5.2 nM. The IC50 [4, 10] was 3.1 nM, the IC50 [4, 11] was 12 nM and the IC50 [4, 12] was 8.2 nM. It also gave an IC50 [4, 13] of 4.1 nM, an IC50 [4, 14] of 5.4 nM and an IC50 [4, 15] of 4.4 nM. The IC50 [4, 16] was 4 nM, the IC50 [4, 17] was 10 nM and the IC50 [4, 18] was 6.9 nM. It also gave an IC50 [4, 19] of 4.8 nM, an IC50 ([4]; OCI-Ly10, navitoclax 0 nM) of 15 nM and an IC50 [4, 20] of 16 nM. The IC50 ([4]; OCI-Ly10, venetoclax 0 nM) was 15 nM, the BLISS score [5] was “positive values” and the IC50 ([6]; OCI-Ly10, S-55746 0 nM) was 2.1 nM. It also gave an IC50 [6, 8] of 1.3 nM, an IC50 [6, 9] of 1.1 nM and an IC50 [6, 10] of 0.6 nM. For the same molecule, the IC50 [6, 11] was 1.4 nM, the IC50 [6, 12] was 1.1 nM and the IC50 [6, 13] was 0.8 nM. It also gave an IC50 [6, 14] of 0.9 nM, an IC50 [6, 15] of 0.9 nM and an IC50 [6, 16] of 0.9 nM. The IC50 [6, 17] was 1.5 nM, the IC50 [6, 18] was 1.5 nM and the IC50 [6, 19] was 1.3 nM. It also gave an IC50 [6, 20] of 1.2 nM, an IC50 ([6]; OCI-Ly10, venetoclax 0 nM) of 2.1 nM and an IC50 ([7]; U2932, S-55746 0 nM) of over 30000 nM. The IC50 ([7]; U2932, in the presence of S-55746 100 nM) was 3480 nM, the IC50 ([7]; U2932, in the presence of S-55746 300 nM) was 480 nM and the IC50 ([7]; U2932, in the presence of S-55746 1000 nM) was 22 nM. The IC50 ([7]; U2932, in the presence of navitoclax 30 nM) was 12000 nM, the IC50 ([7]; U2932, in the presence of navitoclax 100 nM) was 1950 nM and the IC50 ([7]; U2932, in the presence of navitoclax 300 nM) was 23 nM. The IC50 ([7]; U2932, in the presence of obatoclax mesylate 50 nM) was 19600 nM, the IC50 ([7]; U2932, in the presence of obatoclax mesylate 100 nM) was 13500 nM and the IC50 ([7]; U2932, in the presence of venetoclax 3 nM) was 4800 nM. It also gave an IC50 ([7]; U2932, in the presence of venetoclax 10 nM) of 1100 nM, an IC50 ([7]; U2932, in the presence of venetoclax 100 nM) of 14 nM and an IC50 ([7]; U2932, navitoclax 0 nM) of 28500 nM. It also gave an IC50 ([7]; U2932, obatoclax mesylate 0 nM) of 25900 nM and an IC50 ([7]; U2932, venetoclax 0 nM) of 13600 nM.
